Results on ten molecules are retold here after paper PMC9663970, “New triazole-substituted triterpene derivatives exhibiting anti-RSV activity: synthesis, biological evaluation, and molecular modeling” (Beilstein Journal of Organic Chemistry, 2022).

Series [1] relates to SARS-CoV. The following applies: in vitro in Vero cells; read-out: IC50 against SARS-CoV; cited from earlier work.
The test system of a further series is A549 cells. Nature of the series: cells. The series is classed as cell-based. The following applies: for IC50: Homo sapiens, read-out: IC50 ± SD, concentration toxic to 50% of non-infected A549 cells.
In another series the test system is HEP2 cells. Nature of the series: cells. The series is classed as cell-based. The settings on record: for IC50: Homo sapiens, read-out: IC50 ± SD, concentration toxic to 50% of non-infected HEP2 cells.
In another series the test system is HIV protease. Further details: method as in PMID 10071849. The following applies: read-out: IC50 HIV protease inhibition; cited from earlier work.
In series [2] the test system is SARS-CoV. The following applies: cited from earlier work.
In a further series the test system is RSV. Nature of the series: Anti-RSV activity in RSV-infected A549 cells (MTT and SRB). The settings on record: for Therapeutic index (TI) = IC50(A549)/EC50(A549 + RSV): IC50 in A549; for Therapeutic index (TI) = IC50(B16F10)/EC50(A549 + RSV): IC50 in B16F10; for Therapeutic index (TI) = IC50(HEP2)/EC50(A549 + RSV): IC50 in HEP2; for Therapeutic index (TI) = IC50(VERO)/EC50(A549 + RSV): IC50 in VERO. The format is cell-based, RSV A strain (line A2).

A further series has as its system B16F10 cells. Nature of the series: cells. The format is cell-based. The following applies: for IC50: Mus musculus, read-out: IC50 ± SD, concentration toxic to 50% of non-infected B16F10 cells.
The test system of the next series is VERO cells. Nature of the series: cells. The format is cell-based. The following applies: for IC50: Chlorocebus sabaeus, 96 h, read-out: IC50 ± SD, concentration toxic to 50% of non-infected VERO cells.
The subject of a further series is RSV protein F gene. The series is classed as cell-based. The settings on record: 12.5 µM, RSV-infected A549 cells, 96 h, compared to control.
Where [3] appears, read: human respiratory syncytial virus, A549, read-out: EC50 ± SD, concentration that inhibits RSV replication by 50%, A549+RSV, treated 4 hours after viral infection, 96 h.
[4] abbreviates: human respiratory syncytial virus, A549, A549+RSV, treated 4 hours after viral infection, 96 h, read-out: EC50 ± SD, concentration that inhibits RSV replication by 50%.
Where [5] appears, read: MTT test, 96 h, non-infected A549 cells.
Setting [6] is: HEp-2, MTT test, 96 h, non-infected HEP2 cells.
Where [7] appears, read: B16-F10, MTT test, 96 h, non-infected B16F10 cells.
Setting [8] is: MTT test, non-infected VERO cells.

Where two headings read alike, the source gives them in different places.

With `CC1(C)[C@@H](O[C@H]2O[C@H](C(=O)O)[C@@H](O)[C@H](O)[C@H]2O[C@@H]2O[C@H](C(=O)O)[C@@H](O)[C@H](O)[C@H]2O)CC[C@]2(C)[C@H]3C(=O)C=C4[C@@H]5C[C@@](C)(C(=O)O)CC[C@]5(C)CC[C@@]4(C)[C@]3(C)CC[C@@H]12` [glycyrrhizic acid], the IC50 with SARS-CoV [1] is 365 µM.
Take `C=C(C)[C@@H]1CC[C@]2(C(=O)O)CC[C@]3(C)[C@H](CC[C@@H]4[C@@]5(C)CC[C@H](O)C(C)(C)[C@@H]5CC[C@]43C)[C@@H]12` [compound 1, betulinic acid, reference compound]: the IC50 in the series with A549 cells (A549, 96 h) is 17.8 ± 0.6 µM; with HEP2 cells (HEp-2, 96 h), 28 ± 0.3 µM; in the series on HIV protease, 8 µM; in the series on B16F10 cells (B16-F10, 96 h), 22.7 ± 0.8 µM; with VERO cells (Vero), 14.2 ± 0.2 µM. For the same molecule, the “SI anti-SARS-CoV activity” value in the series with SARS-CoV [2] is on record as above 10. Moreover, the values for the EC50 in the series on SARS-CoV [2] (read-out: EC50 anti-SARS-CoV activity) and with RSV (setting [3]) were 10 µM and 5.3 ± 0.7 µM, respectively. For the same molecule, the “Therapeutic index (TI) = IC50(A549)/EC50(A549 + RSV)” value in the series on RSV amounted to 3.4. Also, the “Therapeutic index (TI) = IC50(B16F10)/EC50(A549 + RSV)” value in the series with RSV was 4.3. For the same molecule, the “Therapeutic index (TI) = IC50(HEP2)/EC50(A549 + RSV)” value in the series with RSV worked out at 5.3. Further, the “Therapeutic index (TI) = IC50(VERO)/EC50(A549 + RSV)” value in the series on RSV is recorded as 2.7.
In the case of `C=C(C)[C@@H]1CC[C@]2(C(=O)OCc3cn(-c4cccc([N+](=O)[O-])c4)nn3)CC[C@]3(C)[C@H](CC[C@@H]4[C@@]5(C)CC[C@H](OC(C)=O)C(C)(C)[C@@H]5CC[C@]43C)[C@@H]12` [compound 7], the IC50 worked out at 42.7 ± 0.6 µM with A549 cells (A549, 96 h); 23.8 ± 2 µM in the series with HEP2 cells (HEp-2, 96 h); 18.8 ± 0.7 µM in the series on B16F10 cells (B16-F10, 96 h); 18.9 ± 1.4 µM in the series on VERO cells (Vero). Moreover, the EC50 in the series with RSV (A549+RSV, treated 4 hours after viral infection, 96 h, read-out: EC50 ± SD, concentration that inhibits RSV replication by 50%) came to 0.3 ± 0.1 µM; in the series with RSV (setting [4]), 0.314 µM. The “Therapeutic index (TI) = IC50(A549)/EC50(A549 + RSV)” value in the series with RSV amounted to 142.3. In the series on RSV, the “Therapeutic index (TI) = IC50(B16F10)/EC50(A549 + RSV)” value is given as 62.7. Further, the “Therapeutic index (TI) = IC50(HEP2)/EC50(A549 + RSV)” value in the series on RSV is reported as 79.3. The “Therapeutic index (TI) = IC50(VERO)/EC50(A549 + RSV)” value in the series on RSV worked out at 63.0.
Take `CC(=O)OC1CCC2(C)C(CCC3(C)C2CC=C2C4C(C)C(C)CCC4(C(=O)OCc4cn(-c5cccc([N+](=O)[O-])c5)nn4)CCC23C)C1(C)C` (stereo not drawn) [compound 8]: the IC50 with A549 cells (A549, 96 h) was 59.2 ± 0.9 µM; with HEP2 cells (HEp-2, 96 h), 19.9 ± 1.2 µM; in the series on B16F10 cells (B16-F10, 96 h), 9.8 ± 0.6 µM; with VERO cells (Vero) it was 21.6 ± 0.9 µM. For the same molecule, the “Cytotoxicity (in words)” value in the series with A549 cells (non-infected A549 cells), in the series on HEP2 cells (non-infected HEP2 cells), with B16F10 cells (non-infected B16F10 cells) and in the series on VERO cells (non-infected VERO cells) was “low cytotoxicity” each time. For the same molecule, the “Therapeutic index (TI) = IC50(B16F10)/EC50(A549 + RSV)” value in the series on RSV amounted to 196.0. Further, the “Therapeutic index (TI) = IC50(HEP2)/EC50(A549 + RSV)” value in the series on RSV was 398.0. Moreover, the “Therapeutic index (TI) = IC50(VERO)/EC50(A549 + RSV)” value in the series on RSV was determined as 432.0. Moreover, the EC50 in the series with RSV (setting [3]) amounted to 0.053 µM. Moreover, the “Reduction of RSV protein F gene expression” value with RSV protein F gene is recorded as “approximately 65%”.
With `NC(=O)c1ncn([C@@H]2O[C@H](CO)[C@@H](O)[C@H]2O)n1` [RBV, ribavirin, reference compound], the EC50 in the series on RSV (setting [4]) amounted to 4.9 ± 1.4 µM.
Turning to `C#CCOC(=O)[C@]12CC[C@@H](C(=C)C)[C@@H]1[C@H]1CC[C@@H]3[C@@]4(C)CC[C@H](OC(C)=O)C(C)(C)[C@@H]4CC[C@@]3(C)[C@]1(C)CC2` [compound 5], the IC50 in the series on A549 cells (A549, 96 h) turned out to be 88.8 ± 1 µM; in the series with HEP2 cells (HEp-2, 96 h) it was 18.4 ± 0.6 µM; in the series on B16F10 cells (B16-F10, 96 h), 25.6 ± 0.5 µM; in the series on VERO cells (Vero) it was 14.5 ± 0.2 µM. In the series on RSV, the “Therapeutic index (TI) = IC50(A549)/EC50(A549 + RSV)” value came out at 148.0. In addition, the “Therapeutic index (TI) = IC50(B16F10)/EC50(A549 + RSV)” value with RSV came to 42.7. Further, the “Therapeutic index (TI) = IC50(HEP2)/EC50(A549 + RSV)” value in the series with RSV is recorded as 30.7. In the series with RSV, the “Therapeutic index (TI) = IC50(VERO)/EC50(A549 + RSV)” value is on record as 24.2. Besides, in the series with RSV (setting [4]), the EC50 was found to be 0.6 ± 0.8 µM.
Turning to `C[C@H]1[C@H](C)CC[C@]2(C(=O)O)CC[C@]3(C)C(=CC[C@@H]4[C@@]5(C)CC[C@H](O)C(C)(C)[C@@H]5CC[C@]43C)[C@H]12` [compound 2, ursolic acid, reference compound], the IC50 is 26.7 ± 0.9 µM in the series on A549 cells (A549, 96 h); 26.9 ± 0.4 µM in the series with HEP2 cells (HEp-2, 96 h); 9 µM in the series with HIV protease; 16.2 ± 0.8 µM in the series with B16F10 cells (B16-F10, 96 h); 12.9 ± 0.8 µM in the series on VERO cells (Vero). The “Therapeutic index (TI) = IC50(A549)/EC50(A549 + RSV)” value in the series on RSV was 1.5. In the series on RSV, the “Therapeutic index (TI) = IC50(B16F10)/EC50(A549 + RSV)” value is listed as 0.9. The “Therapeutic index (TI) = IC50(HEP2)/EC50(A549 + RSV)” value in the series on RSV came to 1.6. Besides, the “Therapeutic index (TI) = IC50(VERO)/EC50(A549 + RSV)” value in the series with RSV is 0.8. Also, the EC50 in the series on RSV (setting [3]) was found to be 17.3 ± 0.9 µM.
Take `C=C(C)[C@@H]1CC[C@]2(C(=O)O)CC[C@]3(C)[C@H](CC[C@@H]4[C@@]5(C)CC[C@H](OC(C)=O)C(C)(C)[C@@H]5CC[C@]43C)[C@@H]12` [compound 3]: the IC50 is 53 ± 0.9 µM in the series on A549 cells (A549, 96 h); 11.5 ± 1.5 µM in the series with HEP2 cells (HEp-2, 96 h); 10.2 ± 1.1 µM with B16F10 cells (B16-F10, 96 h); 13.4 ± 2.1 µM in the series on VERO cells (Vero). The “Therapeutic index (TI) = IC50(A549)/EC50(A549 + RSV)” value with RSV is listed as 1.2. For the same molecule, in the series on RSV, the “Therapeutic index (TI) = IC50(B16F10)/EC50(A549 + RSV)” value came out at 0.2. The “Therapeutic index (TI) = IC50(HEP2)/EC50(A549 + RSV)” value in the series on RSV is 0.3. Moreover, the “Therapeutic index (TI) = IC50(VERO)/EC50(A549 + RSV)” value with RSV is on record as 0.3. The EC50 in the series on RSV (setting [3]) was 44.4 ± 0.5 µM.
For `C#CCOC(=O)[C@]12CC[C@@H](C)[C@H](C)[C@H]1C1=CC[C@@H]3[C@@]4(C)CC[C@H](OC(C)=O)C(C)(C)[C@@H]4CC[C@@]3(C)[C@]1(C)CC2` [compound 6], the IC50 with A549 cells (setting [5]) is 67.2 ± 0.5 µM. Also, the IC50 in the series with HEP2 cells (setting [6]) came out at 20.3 ± 0.4 µM. Besides, in the series on RSV, the “Therapeutic index (TI) = IC50(A549)/EC50(A549 + RSV)” value is recorded as 1.9, the “Therapeutic index (TI) = IC50(B16F10)/EC50(A549 + RSV)” value is 0.8, the “Therapeutic index (TI) = IC50(HEP2)/EC50(A549 + RSV)” value stood at 0.6 and the “Therapeutic index (TI) = IC50(VERO)/EC50(A549 + RSV)” value is 0.7. Besides, the EC50 in the series on RSV (setting [4]) is 36.2 ± 0.9 µM. Besides, the IC50 with B16F10 cells (setting [7]) was determined as 29 ± 1.1 µM. Also, the IC50 with VERO cells (setting [8]) turned out to be 26.1 ± 0.6 µM.
For the molecule `CC(=O)OC1CCC2(C)C(CCC3(C)C2CC=C2C4C(C)C(C)CCC4(C(=O)O)CCC23C)C1(C)C` (stereo not drawn) [compound 4], the IC50 in the series on A549 cells (setting [5]) worked out at 133 ± 1.1 µM; with HEP2 cells (setting [6]), 17.2 ± 0.9 µM; in the series on B16F10 cells (setting [7]) it was 12.4 ± 0.8 µM; in the series on VERO cells (setting [8]), 12.6 ± 1.2 µM. The “Therapeutic index (TI) = IC50(A549)/EC50(A549 + RSV)” value in the series with RSV came out at 9.3. Besides, the “Therapeutic index (TI) = IC50(B16F10)/EC50(A549 + RSV)” value in the series with RSV is 0.9. The “Therapeutic index (TI) = IC50(HEP2)/EC50(A549 + RSV)” value in the series with RSV is 1.2. Further, the “Therapeutic index (TI) = IC50(VERO)/EC50(A549 + RSV)” value with RSV was determined as 0.9. In addition, the EC50 is 14.3 µM with RSV (setting [3]) and 14.3 ± 0.6 µM with RSV (read-out: EC50 ± SD, concentration that inhibits RSV replication by 50%, A549+RSV, treated 4 hours after viral infection, 96 h).
